Laboratory results reported in article PMC9804781, “Identification of a Novel Pseudo‐Natural Product Type IV IDO1 Inhibitor Chemotype” (Angewandte Chemie (International Ed. in English), 2022).

Tests used:
[1] = Stability of Apoxidole-1 in Serum; type: in vitro ADME; conditions: 400 µM in FBS, 37°C, up to 48 h
Experimental: transparent microplates (UV-STAR®, Greiner AG, AT). Subsequently, absorbance spectra from 250 nm to 550 nm were recorded on the Spark® Multimode Microplate Reader (Tecan, AT).
SKOV-3 cells (1.25 x 10^6 cells/flask) were seeded in two T75 tissue culture flasks and incubated for 24 h prior to addition of 17.6 ng/mL IFN-γ and 10 µM succinylacetone (SA, heme synthesis inhibitor). After 24 h, cells were treated with the compound (C) or DMSO (V, vehicle) for 15 min at 37°C. Cells were detached with trypsin/EDTA and washed thrice in cold PBS after resuspension in cold PBS. C- and V-treated samples were distributed equally into ten tubes each and subjected to heating at different temperatures in the MasterCycler EpGradient S (Eppendorf SE, DE). Afterwards, NP-40 alternative was added to a final concentration of 0.4% (v/v) and cells were lysed by five consecutive freeze/thaw cycles. Soluble fractions were separated from denatured proteins by centrifugation at 100,000 x g and 4°C for 20 min. […]
A truncated version of recombinant human GST-IDO1 (rhIDO1) consisting of amino acids 5-400 of the 403 amino acid-long full-length human IDO1 was expressed in E. coli and purified as published previously.[15] The heme cofactor was released from IDO1 by overnight incubation with 2-mercaptoethanesulfonate (MESNA) as described previously[18] and heme occupancy was determined by UV/Vis spectrophotometry. […]

rhIDO1 (holo-IDO1) = target: T1, rhIDO1 (holo-IDO1) (Homo sapiens, UniProt P14902); assay: UV/Vis spectrophotometry of the Soret peak (heme loss); type: binding; conditions: holo-IDO1, 2 h at 37 °C
T1 construct: His; made in house; host or cells: E. coli
Experimental: using the ChemiDoc MP Imaging System (Bio-Rad Laboratories, DE). IDO1 protein levels were normalized to the levels of reference protein vinculin.
BxPC-3 cells (10,000 cells/well) were seeded in 96-well plates and incubated for 24 h prior to addition of 50 ng/mL IFN-γ and compounds at indicated concentrations for 48 h. Cells were fixed with 4% paraformaldehyde for 20 min at room temperature followed by permeabilization with 0.5% Triton X-100 for 15 min at room temperature. Afterwards, unspecific binding sites were blocked with 5% non-fat milk in PBS with 0.1% (v/v) Tween-20 (PBS-T) for 60 min at room temperature followed by overnight incubation at 4°C with the primary antibodies. […]
11 µM rhIDO1 was incubated with compounds at indicated concentrations for 60 min at 37°C in 50 mM potassium phosphate buffer (16.9 mM K2HPO4, 33.1 mM, KH2PO4, pH 6.5). The thermal protein stability from 20°C to 90°C (1°C/min) was measured by means of the intrinsic tryptophan/tyrosine fluorescence using the Prometheus™ NT.48 (NanoTemper® Technologies, DE). Melting scans, first derivatives of melting scans and melting temperatures were analyzed using PR.ThermControl software (NanoTemper® Technologies, DE). […]
transparent microplates (UV-STAR®, Greiner AG, AT). Subsequently, absorbance spectra from 250 nm to 550 nm were recorded on the Spark® Multimode Microplate Reader (Tecan, AT). […]

T1 sequence (P14902 whole entry): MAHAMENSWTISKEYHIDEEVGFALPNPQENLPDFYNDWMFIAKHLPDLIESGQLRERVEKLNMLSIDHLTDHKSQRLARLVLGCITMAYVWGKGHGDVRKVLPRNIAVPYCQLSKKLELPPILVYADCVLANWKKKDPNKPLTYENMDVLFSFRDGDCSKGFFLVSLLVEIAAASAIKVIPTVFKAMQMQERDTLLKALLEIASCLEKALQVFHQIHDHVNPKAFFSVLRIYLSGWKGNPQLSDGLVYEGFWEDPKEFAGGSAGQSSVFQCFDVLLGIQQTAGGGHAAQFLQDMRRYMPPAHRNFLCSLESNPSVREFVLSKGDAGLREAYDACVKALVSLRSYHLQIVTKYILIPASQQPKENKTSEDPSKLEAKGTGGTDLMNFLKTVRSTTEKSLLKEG

- integrity of the compound in serum [1]: confirmed
- effect on Soret peak at 404 nm (heme loss) (rhIDO1 (holo-IDO1)): reduced the Soret peak
Compound: CCOC(=O)C1=CC[C@](C(=O)OC)(c2cc3ccccc3n2C)N(S(=O)(=O)c2ccc(C)cc2)[C@@H]1C(=O)OC(C)(C)C [Compound 3d]
